Laboratory results: US12036319B2, “Polyvalent sting activating compositions and uses thereof” (The Board of Regents of the University of Texas System, priority 2020, dated 2024)

Experiments:
[1] = tested on: mutant STING-GFP in HEK293T cells; experiment: Downstream STING activation in HEK293T cells transfected with mutant STING plasmids; assay type: cell-based, human
Excerpt: (§1) WT or R232H THP-1 reporter cells were purchased from Invitrogen.
(§2) Microscopy. […] In STING degradation assay, LysoTracker Red DND-99 (Thermo Scientific) was used to stain lysosomes in live cells. […] Samples were mounted in prolong gold antifade with Dapi stain (Thermo Scientific) and imaged using a Zeiss 700 confocal laser scanning microscope with a 63× oil objective. ImageJ was used to quantify co-localization by Pearson's correlation coefficient. Data are representative of at least twenty cells.
(§3) RT-qPCR. Total RNAs were extracted from cells or human tissues by using RNeasy mini kit (QIAGEN). RNA quantity and quality were confirmed using NanoDrop (DeNovix DS-11). Genomic DNA was removed and cDNA was synthesized using an iScript™ gDNA clear cDNA synthesis kit (Bio-Rad). Bio-Rad SoAdvanced™ universal SYBR green supermix and CFX connect real-time system were used for PCR analysis. Results were corrected by β-actin or GAPDH. DNA primers are listed as follows: • Mouse ifn-β: […]

[2] = tested on: STING R232H variant in THP1 cells; experiment: IFN-β-Luc expression in THP1 cells harboring STING R232H; assay type: cell-based, human
Excerpt: as §1

[3] = tested on: STING; experiment: Time course of STING puncta, signaling and degradation in GFP-STING MEF and THP1 cells; assay type: cell-based
Excerpt: as §2
Western blot analysis. […] Briefly, cells were lysed in SDS sample buffer (with protease and phosphatase inhibitor cocktail) and heated for denaturation. […] Electro transfer was performed using 100 V for 60 min on ice. After transfer, the membrane was blocked either in 5% non-fat milk or BSA (phosphorylated protein) for 1 h at room temperature, and incubated with primary antibody overnight at 4° C. HRP-linked secondary antibody (Bio-Rad) was used for 1 h at room temperature before detection on X-ray film (GE Healthcare). Membrane was stripped in stripping buffer for 30 min and reused for […] (Sigma Aldrich) detection.
as §3

[4] = tested on: B16-F10 melanoma tumor model; experiment: Interferon-stimulated gene expression in B16-F10 tumor-bearing mice; assay type: in vivo, mouse
Procedure: RT-qPCR. […] Results were corrected by β-actin or GAPDH.
Mice were subcutaneously inoculated with B16F10 melanoma cells (1.0×10^5) or TC-1 cells (1.0×10^5) into the right flank. […] Mice were euthanized one-day post-injection, and tumors and draining lymph nodes were collected. Total RNAs were extracted by TRIzol (Invitrogen), and the expressions of interferon-stimulated genes (ifn-β, cxcl10, tnf-α, and irf7) were measured via RT-qPCR.

[5] = tested on: TC-1 tumors; experiment: Tumor therapy, TC-1 tumor model; assay type: in vivo, mouse; conditions: TC-1, intratumoral, four injections, versus 5% glucose
Procedure: Tumor therapy experiments. Mice were subcutaneously inoculated with MC38 cells (1.0×10^6) or TC-1 cells (1.0×10^5) into the right flank. Tumor size was measured every other day via a digital caliper, and tumor volume was calculated as 0.5×length×width^2. […] Mice were injected 3× in MC38 model and 4× in TC-1 model with treatments spaced 4 d apart. Mice were euthanized at a tumor burden endpoint of 2,000 mm^3.

[6] = tested on: resected human tissues (squamous cell carcinoma from the base of tongue, cervical tumor tissues, sentinel lymph node); experiment: STING activation in freshly resected human tissues; conditions: ex vivo injection, 24 h at 37° C.; cGAMP 80 ng, PC7A 50 μg
Excerpt: as §3

Nc1nc2c(ncn2[C@@H]2O[C@@H]3COP(=O)(O)OC4C(O)[C@H](n5cnc6c(N)ncnc65)O[C@@H]4COP(=O)(O)OC2C3O)c(=O)[nH]1 (stereo partly drawn) [cGAMP, cyclic guanosine monophosphate-adenosine monophosphate]
condensate structures, TBK1 phosphorylation and ifn-β/cxcl10 expression [1]: did not impact cGAMP-mediated STING activation | IFN-β-Luc expression [2]: abrogated | time of peak immune response after stimulation [3]: around 6 h | time to STING degradation ([3]; STING-GFP MEFs): ≤ 12 h | p-TBK1/p-IRF3 production and proinflammatory cytokine expression ([3]; in the presence of brefeldin A (BFA, 10 μM)): fail to trigger p-TBK1/p-IRF3 production and proinflammatory cytokine expression | STING activation in draining lymph nodes ([4]; intratumoral injection, cGAMP high dose 2.5 μg): minimal STING activation | interferon-stimulated gene expression (ifn-β, cxcl10, tnf-α, irf7) in tumor ([4]; single intratumoral injection, 24 hours, PC7A 50 μg, cGAMP low dose 0.5 μg): failed to induce interferon-stimulated gene expressions | extension of median survival [5]: 4 days | ifn-β and cxcl10 mRNA expression over control [6]: marginal effect
